Literature values, collected in patent US20240165053A1, “Topical Medicament for Use in Treatment of Anorectal Inflammation” (priority 2022, published 2024).

System: swollen hemorrhoids

For `OC[C@H]1O[C@@](CO)(O[C@H]2O[C@H](CO)[C@@H](O)[C@H](O)[C@H]2O)[C@@H](O)[C@@H]1O` [granulated sugar, Sucrose], the “time of application after which the difference is noticeable with the naked eye” value (topical application on prolapsed hemorrhoids) is given as 10 min and the “edema reduction of swollen hemorrhoids” value (topical application, medical studies) is given as “immediate edema reduction”.
